From ChEMBL document CHEMBL3137667, “[Drug-induced liver injury; fourteenth updated edition of the bibliographic database of liver injuries and related drugs]” (Gastroenterol Clin Biol, 2004)

Experiments:
[1] = human
[2] = human; remark: listed apart in the source
[3] = human; remark: listed apart in the source
[4] = human; remark: listed apart in the source
[5] = human; remark: listed apart in the source
[6] = Times to onset, minimal and maximal, observed in the indexed observations. [column 'DELAI' in source]; details: human
[7] = Highest frequency of acute liver toxicity observed during clinical trials, expressed as a percentage. [column '% AIGUE' in source]; details: human
[8] = human; remark: listed apart in the source
[9] = human, serum
[10] = Highest frequency of moderate liver toxicity observed during clinical trials, expressed as a percentage. [column '% BIOL' in source]; details: human
[11] = human, serum, 4383 h
[12] = human; remark: listed apart in the source
[13] = human; remark: listed apart in the source
[14] = human; remark: listed apart in the source
[15] = human, serum; remark: listed apart in the source
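Throughout, for Hepatotoxicity (association with vascular disease): count of indexed literature references reporting vascular liver injury in humans, e.g. peliosis hepatitis, hepatic veno-occlusive disease or Budd-Chiari syndrome.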
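Throughout, for Hepatotoxicity (benign tumour): value is a count of indexed literature references citing a benign tumour confirmed by histopathology.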
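Throughout, for Hepatotoxicity (choleostasis): human cholestatic liver injury, shown by histopathology or by peak ALT or AST elevation over alkaline phosphatase ratio below 2, value counts indexed literature reports.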
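Throughout, for Hepatotoxicity (chronic liver disease): chronic liver injury confirmed by histopathology or persistently raised serum aminotransferase activity beyond 6 months, value given as the count of indexed literature references.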
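Throughout, for Hepatotoxicity (cirrhosis): value is a count of indexed literature references reporting cirrhosis confirmed by histopathology.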
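Throughout, for Hepatotoxicity (cytolytic): human cytolytic liver injury, shown by histopathology or by a ratio above 5 of peak ALT or AST elevation to alkaline phosphatase elevation, value counts indexed references.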
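Throughout, for Hepatotoxicity (granulomatous hepatitis): value is a count of indexed literature references reporting granulomatous liver disease confirmed by histopathology.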
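Throughout, for Hepatotoxicity (malignant tumour): malignant tumour confirmed by histopathology, value gives the count of indexed literature references reporting it.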
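Throughout, for Hepatotoxicity (severe hepatitis): human clinical data: severe hepatitis, meaning potentially life-threatening liver failure or clinically observed cases, the value counts how many indexed literature references report it.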
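Throughout, for Hepatotoxicity (steatosis): steatosis confirmed by histopathology, value is the count of indexed references.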

Row | Structure (SMILES) | Hepatotoxicity (malignant tumour) [1] | Hepatotoxicity (steatosis) [2] | Hepatotoxicity (time to onset) [6] | Hepatotoxicity (moderate) [9] | Hepatotoxicity (chronic liver disease) [11] | Hepatotoxicity (cirrhosis) [12] | Hepatotoxicity (benign tumour) [13] | Hepatotoxicity (association with vascular disease) [14] | Hepatotoxicity (acute) [15] | Hepatotoxicity (cytolytic) [3] | Hepatotoxicity (severe hepatitis) [4] | Hepatotoxicity (granulomatous hepatitis) [5] | Hepatotoxicity (acute) [7] | Hepatotoxicity (choleostasis) [8] | Hepatotoxicity (moderate) [10] | further results
1 | CO[C@@]1(NC(=O)CSC[C@@H](N)C(=O)O)C(=O)N2C(C(=O)O)=C(CSc3nnnn3C)CS[C@@H]21 [CEFMINOX] | 0 | 0 | 9 days | 12 | 0 | 0 | 0 | 0 | 2 |  |  |  |  |  |  | Hepatotoxicity (cytolytic) ([3]; Liver): 0; Hepatotoxicity (severe hepatitis) ([4]; Liver): 0; Hepatotoxicity (granulomatous hepatitis) ([5]; Liver): 0; Hepatotoxicity (acute) ([7]; Liver): 0.1%; Hepatotoxicity (choleostasis) ([8]; Liver): 0; Hepatotoxicity (moderate) ([10]; Liver): 16.7%
2 | NCc1ccccc1CC(=O)N[C@@H]1C(=O)N2C(C(=O)O)=C(CSc3nnnn3CC(=O)O)CS[C@H]12 [CEFORANIDE] | 0 | 0 | 5 days - 3 weeks | 6 | 0 | 0 | 0 | 0 | 2 | 2 | 0 | 0 | 3.4% | 1 | 42.9% | 
3 | CO/N=C(\C(=O)N[C@@H]1C(=O)N2C(C(=O)O)=C(COC(C)=O)CS[C@H]12)c1csc(N)n1 [CEFOTAXIME] | 0 | 0 | 3 days - 2 weeks | 33 | 0 | 0 | 0 | 0 | 4 | 1 | 0 | 0 | 3.3% | 2 | 33.3% | 
4 | CN(C)CCn1nnnc1SCC1=C(C(=O)O)N2C(=O)[C@@H](NC(=O)Cc3csc(N)n3)[C@H]2SC1 [CEFOTIAM] | 0 | 0 | 4 days | 8 | 0 | 0 | 0 | 0 | 1 | 0 | 0 | 0 | 0.8% | 0 | 33% | 
5 | Cc1cc(O)c(C(=O)N[C@@H](C(=O)N[C@@H]2C(=O)N3C(C(=O)O)=C(CSc4nnnn4C)CS[C@H]23)c2ccc(O)cc2)cn1 [CEFPIRAMIDE] | 0 | 0 | 1 month | 5 | 0 | 0 | 0 | 0 | 1 | 1 | 0 | 0 | 0% | 0 | 10% | 
6 | Cc1ccc(-c2cc(C(F)(F)F)nn2-c2ccc(S(N)(=O)=O)cc2)cc1 [CELECOXIB] | 0 | 0 | 2 days - 3 weeks | 3 | 0 | 0 | 0 | 0 | 8 |  |  |  |  |  |  | Hepatotoxicity (cytolytic) ([3]; Liver): 5; Hepatotoxicity (severe hepatitis) ([4]; Liver): 0; Hepatotoxicity (granulomatous hepatitis) ([5]; Liver): 0; Hepatotoxicity (acute) ([7]; Liver): 0%; Hepatotoxicity (choleostasis) ([8]; Liver): 4; Hepatotoxicity (moderate) ([10]; Liver): 2%
7 | CCN(CC)CCCC(C)Nc1ccnc2cc(Cl)ccc12 (stereo not given) [CHLOROQUINE] | 0 | 0 | 1 day - 4 months | 7 | 0 | 0 | 0 | 0 | 8 | 4 | 0 | 1 | 0% | 1 | 0% | 
8 | O=NN(CCCl)C(=O)N[C@H]1C(O)O[C@H](CO)[C@@H](O)[C@@H]1O (stereo not given in full) [CHLOROZOTOCIN] | 0 | 0 | 1.5 months | 2 | 0 | 0 | 0 | 0 | 2 | 1 | 0 | 0 | 0% | 1 | 33% | 
9 | CN(C)CCC(c1ccc(Cl)cc1)c1ccccn1.O=C(O)/C=C\C(=O)O (stereo not given) [CHLORPHENIRAMINE MALEATE] | 0 | 0 | 1 month | 0 | 0 | 0 | 0 | 0 | 2 | 1 |  | 0 |  | 1 |  | Hepatotoxicity (severe hepatitis) ([4]; Liver): 0; Hepatotoxicity (acute) ([7]; Liver): 0%; Hepatotoxicity (moderate) ([10]; Liver): 0%
10 | CN(C)CC/C=C1/c2ccccc2Sc2ccc(Cl)cc21 [CHLORPROTHIXENE] | 0 | 0 | 1 week | 0 | 0 | 0 | 0 | 0 | 1 | 0 | 0 | 0 | 0% | 1 | 0% | 
11 | CCOC(=O)[C@H](CCc1ccccc1)N[C@H]1CCCN2CCC[C@@H](C(=O)O)N2C1=O [CILAZAPRIL] | 0 | 0 | 2 months | 1 | 0 | 0 | 0 | 0 | 0 | 0 | 0 | 0 | 0% | 0 | 1.2% | 
